Test results as given in ChEMBL document CHEMBL1201862, “PubChem BioAssay data set” (2004).
Activity calls are given as the source filed them.

Assays:
[1] = biological target: T1, Lytic switch protein BZLF1 (Epstein-Barr virus (strain B95-8) (HHV-4) (Human herpesvirus 4), UniProt P03206); assay: EBV ZTA inhibitors, dose response, counter-screen for EBNA-1 inhibitor project, biochemical, fluorescence polarization, Epstein-Barr virus, 1536-well (AID 2377); parameters: species or system human gammaherpesvirus 4;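 further: fluorescence polarization of Cy5-labelled ZRE DNA probe bound by purified Zta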
T1 sequence (P03206 whole entry): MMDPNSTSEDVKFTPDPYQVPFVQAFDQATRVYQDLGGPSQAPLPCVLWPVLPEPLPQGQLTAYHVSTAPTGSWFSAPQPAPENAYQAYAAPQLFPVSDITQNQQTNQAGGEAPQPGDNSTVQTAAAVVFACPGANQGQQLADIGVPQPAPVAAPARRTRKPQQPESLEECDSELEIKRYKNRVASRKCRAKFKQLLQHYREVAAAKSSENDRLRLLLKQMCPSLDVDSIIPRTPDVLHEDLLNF

[2] = biological target: T2, Epstein-Barr nuclear antigen 1 (Epstein-Barr virus (strain B95-8) (HHV-4) (Human herpesvirus 4), UniProt P03211); assay: EBNA-1 inhibitors, dose response, biochemical, fluorescence polarization, 1536-well (AID 2381); parameters: species or system human gammaherpesvirus 4;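 further: fluorescence polarization of a Cy5 DNA probe bound by EBNA-1 protein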
T2 sequence (P03211 whole entry): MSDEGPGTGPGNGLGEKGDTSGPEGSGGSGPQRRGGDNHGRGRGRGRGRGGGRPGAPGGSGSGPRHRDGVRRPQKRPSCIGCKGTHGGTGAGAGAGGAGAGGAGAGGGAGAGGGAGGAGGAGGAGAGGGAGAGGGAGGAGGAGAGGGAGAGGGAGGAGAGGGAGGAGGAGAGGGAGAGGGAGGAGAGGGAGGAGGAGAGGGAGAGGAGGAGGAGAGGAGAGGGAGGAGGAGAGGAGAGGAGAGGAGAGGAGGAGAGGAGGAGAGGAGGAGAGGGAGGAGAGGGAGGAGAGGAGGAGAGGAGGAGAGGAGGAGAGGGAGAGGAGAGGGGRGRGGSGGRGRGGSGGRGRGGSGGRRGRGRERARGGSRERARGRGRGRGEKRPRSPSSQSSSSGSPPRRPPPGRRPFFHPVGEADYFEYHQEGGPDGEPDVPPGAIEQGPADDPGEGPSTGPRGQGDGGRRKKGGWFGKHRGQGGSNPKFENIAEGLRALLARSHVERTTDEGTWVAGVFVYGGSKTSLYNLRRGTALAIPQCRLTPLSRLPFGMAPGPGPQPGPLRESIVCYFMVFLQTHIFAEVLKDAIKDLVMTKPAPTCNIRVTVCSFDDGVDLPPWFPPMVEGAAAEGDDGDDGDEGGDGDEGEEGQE

Mucolipin-3 = biological target: T3, Mucolipin-3 (Homo sapiens, UniProt Q8TDD5); assay: Dose response cell-based high-throughput screening assay for agonists of the transient receptor potential channel ML3 (TRPML3). [Related pubchem assays: 1526, 1424, 1448 ]; format: functional
T3 sequence (Q8TDD5 whole entry): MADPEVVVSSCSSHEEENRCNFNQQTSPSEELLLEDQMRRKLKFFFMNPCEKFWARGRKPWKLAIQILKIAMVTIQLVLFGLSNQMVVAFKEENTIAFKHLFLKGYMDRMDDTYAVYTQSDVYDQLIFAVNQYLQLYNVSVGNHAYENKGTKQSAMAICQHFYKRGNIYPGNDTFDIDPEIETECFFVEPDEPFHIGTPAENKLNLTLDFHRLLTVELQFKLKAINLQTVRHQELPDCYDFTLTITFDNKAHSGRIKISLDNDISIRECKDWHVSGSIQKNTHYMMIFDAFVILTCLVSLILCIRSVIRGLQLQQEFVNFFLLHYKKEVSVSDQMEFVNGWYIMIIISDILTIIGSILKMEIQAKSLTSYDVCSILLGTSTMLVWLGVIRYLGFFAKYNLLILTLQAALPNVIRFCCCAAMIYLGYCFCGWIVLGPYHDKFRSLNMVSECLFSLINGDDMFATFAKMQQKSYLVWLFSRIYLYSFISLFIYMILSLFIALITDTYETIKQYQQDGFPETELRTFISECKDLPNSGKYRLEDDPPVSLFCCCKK

Ion channel NompC = Ion channel NompC (Danio rerio, UniProt Q7T1G6); assay: Fluorescence counterscreen assay for TRPML3 agonists: dose response cell-based high-throughput screening assay to identify agonists of the transient receptor potential channel N1 (TRPN1). [Related pubchem assays: 1526, 1424, 1448 ]; format: functional
[3] = biological target: Glyceraldehyde-3-phosphate dehydrogenase (Homo sapiens, UniProt P04406)
Bcl-2-related protein A1 [4] = biological target: T4, Bcl-2-related protein A1 (Mus musculus, UniProt Q07440); assay: Bfl-1 inhibitors blocking BH3 peptide binding, confirmation, biochemical, TR-FRET, mouse Bfl-1 (AID 621);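 further: TR-FRET binding of GST-Bfl-1 to FITC-labelled Bid peptide via terbium antibody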
T4 sequence (Q07440 whole entry): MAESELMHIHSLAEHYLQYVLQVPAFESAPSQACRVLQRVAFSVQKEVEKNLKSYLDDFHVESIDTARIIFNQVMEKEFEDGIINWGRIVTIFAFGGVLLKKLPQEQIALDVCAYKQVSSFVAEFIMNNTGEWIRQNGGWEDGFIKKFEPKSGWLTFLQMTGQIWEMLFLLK

Bcl-2-related protein A1 [5] = biological target: T4, Bcl-2-related protein A1; assay: Bfl-1 binding inhibitors, SAR follow-up, biochemical, fluorescence polarization (AID 1070)
Estrogen receptor beta [6] = biological target: T5, Estrogen receptor beta (Homo sapiens, UniProt Q92731); assay: ERβ–SRC-3 coactivator interaction inhibitors, confirmation, orthogonal assay, biochemical, ELISA, streptavidin-HRP readout (AID 1060)
[7] = biological target: T6, Carboxy-terminal domain RNA polymerase II polypeptide A small phosphatase 1 (Homo sapiens, UniProt Q9GZU7); assay: inhibitors of CTDSP1, concentration-response testing, biochemical assay, absorbance-based, actives from ultra-high-throughput screening (AID 540297); format: functional
T6 sequence (Q9GZU7 whole entry): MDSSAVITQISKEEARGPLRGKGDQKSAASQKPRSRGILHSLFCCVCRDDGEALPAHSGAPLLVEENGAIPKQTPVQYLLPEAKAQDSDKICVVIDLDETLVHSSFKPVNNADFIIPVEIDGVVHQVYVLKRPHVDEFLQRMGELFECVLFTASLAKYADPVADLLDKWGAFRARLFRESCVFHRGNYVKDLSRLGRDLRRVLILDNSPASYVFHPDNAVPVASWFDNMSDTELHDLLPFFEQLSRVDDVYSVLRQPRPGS

Estrogen receptor beta [8] = biological target: T5, Estrogen receptor beta
[9] = biological target: Voltage-gated inwardly rectifying potassium channel KCNH2 (Homo sapiens, UniProt Q12809); assay: hERG protection from proarrhythmic block, potency, dose response, cell-based, thallium flux (AID 2121); format: ADME
Cytochrome P450 2D6 = Cytochrome P450 2D6 (Homo sapiens, UniProt P10635); assay: qHTS Assay for Inhibitors and Substrates of Cytochrome P450 2D6. [Related pubchem assays: 410 ]; format: ADME; details: read-out: Potency
Cytochrome P450 2C9 = Cytochrome P450 2C9 (Homo sapiens, UniProt P11712); details: Potency
[10] = biological target: Protein-tyrosine kinase 2-beta (Homo sapiens, UniProt Q14289);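 further: potency of inhibitors of PYK2 kinase phosphorylation of poly-GT substrate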
[11] = biological target: FAD-linked sulfhydryl oxidase ALR (Homo sapiens, UniProt P55789); assay: inhibitors of human ALR sulfhydryl oxidase, dose response, biochemical, H2O2 detection, luminescence, cherry-pick (AID 493248)
FAD-linked sulfhydryl oxidase ALR, sequence (P55789 whole entry): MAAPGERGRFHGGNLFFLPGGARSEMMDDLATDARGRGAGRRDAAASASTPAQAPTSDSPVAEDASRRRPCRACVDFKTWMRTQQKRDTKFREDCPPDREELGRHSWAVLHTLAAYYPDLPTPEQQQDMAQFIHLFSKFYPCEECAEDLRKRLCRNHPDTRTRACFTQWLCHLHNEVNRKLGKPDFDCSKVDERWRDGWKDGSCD

T5 sequence (Q92731 whole entry, the tested form may be a part): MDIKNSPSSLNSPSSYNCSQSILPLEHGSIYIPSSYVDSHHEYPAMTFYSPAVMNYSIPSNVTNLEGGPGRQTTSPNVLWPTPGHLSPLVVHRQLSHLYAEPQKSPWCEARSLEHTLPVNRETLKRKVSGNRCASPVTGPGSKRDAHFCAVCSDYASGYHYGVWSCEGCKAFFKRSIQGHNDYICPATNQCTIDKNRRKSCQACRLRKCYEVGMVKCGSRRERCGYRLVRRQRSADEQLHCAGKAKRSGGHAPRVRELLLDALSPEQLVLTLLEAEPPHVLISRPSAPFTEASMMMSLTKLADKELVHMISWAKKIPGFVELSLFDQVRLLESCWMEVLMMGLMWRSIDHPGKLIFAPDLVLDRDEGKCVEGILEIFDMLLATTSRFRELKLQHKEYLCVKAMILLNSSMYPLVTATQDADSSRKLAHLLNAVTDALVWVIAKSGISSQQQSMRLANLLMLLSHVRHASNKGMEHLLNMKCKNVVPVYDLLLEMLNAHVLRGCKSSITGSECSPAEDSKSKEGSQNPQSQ
Protein-tyrosine kinase 2-beta, sequence (Q14289 whole entry): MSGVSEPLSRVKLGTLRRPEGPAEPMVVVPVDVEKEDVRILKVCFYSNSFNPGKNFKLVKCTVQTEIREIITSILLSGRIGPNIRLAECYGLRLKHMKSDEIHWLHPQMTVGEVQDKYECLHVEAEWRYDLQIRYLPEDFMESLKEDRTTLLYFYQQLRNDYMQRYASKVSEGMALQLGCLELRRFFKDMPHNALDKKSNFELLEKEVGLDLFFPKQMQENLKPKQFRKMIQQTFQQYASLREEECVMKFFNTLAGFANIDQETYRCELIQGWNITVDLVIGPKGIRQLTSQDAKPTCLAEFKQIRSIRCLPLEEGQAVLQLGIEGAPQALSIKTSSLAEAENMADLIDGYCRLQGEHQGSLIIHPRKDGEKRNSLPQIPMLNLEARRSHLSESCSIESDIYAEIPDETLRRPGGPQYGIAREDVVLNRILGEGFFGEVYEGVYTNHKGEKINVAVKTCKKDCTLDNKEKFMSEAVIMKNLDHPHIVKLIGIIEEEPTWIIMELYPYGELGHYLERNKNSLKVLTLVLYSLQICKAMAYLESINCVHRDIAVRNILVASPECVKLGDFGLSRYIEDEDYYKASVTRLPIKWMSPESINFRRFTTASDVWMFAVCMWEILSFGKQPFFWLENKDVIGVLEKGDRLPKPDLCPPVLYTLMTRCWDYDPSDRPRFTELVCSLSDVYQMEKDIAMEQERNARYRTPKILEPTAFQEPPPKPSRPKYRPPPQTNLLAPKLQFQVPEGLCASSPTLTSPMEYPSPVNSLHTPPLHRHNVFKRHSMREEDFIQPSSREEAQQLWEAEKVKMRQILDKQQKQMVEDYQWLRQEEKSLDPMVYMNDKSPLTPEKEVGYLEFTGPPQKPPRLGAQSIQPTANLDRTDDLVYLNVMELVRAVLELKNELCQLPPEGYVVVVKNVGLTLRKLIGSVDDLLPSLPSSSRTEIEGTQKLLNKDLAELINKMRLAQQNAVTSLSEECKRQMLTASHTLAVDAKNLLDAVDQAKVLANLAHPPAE
Cytochrome P450 2C9, sequence (P11712 whole entry): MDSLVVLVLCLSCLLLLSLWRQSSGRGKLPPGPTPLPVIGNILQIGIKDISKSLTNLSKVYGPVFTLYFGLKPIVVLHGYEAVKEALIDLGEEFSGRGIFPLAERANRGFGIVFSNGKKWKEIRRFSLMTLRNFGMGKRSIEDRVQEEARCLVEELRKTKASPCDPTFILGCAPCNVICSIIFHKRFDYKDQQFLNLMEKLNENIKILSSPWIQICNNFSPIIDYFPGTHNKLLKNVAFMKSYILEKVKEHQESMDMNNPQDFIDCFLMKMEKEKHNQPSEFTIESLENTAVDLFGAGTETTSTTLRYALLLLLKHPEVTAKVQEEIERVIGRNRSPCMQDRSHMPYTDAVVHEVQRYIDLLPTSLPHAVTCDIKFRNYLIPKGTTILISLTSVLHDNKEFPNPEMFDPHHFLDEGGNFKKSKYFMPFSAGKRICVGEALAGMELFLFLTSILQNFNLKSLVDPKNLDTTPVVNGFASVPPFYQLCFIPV
Cytochrome P450 2D6, sequence (P10635 whole entry): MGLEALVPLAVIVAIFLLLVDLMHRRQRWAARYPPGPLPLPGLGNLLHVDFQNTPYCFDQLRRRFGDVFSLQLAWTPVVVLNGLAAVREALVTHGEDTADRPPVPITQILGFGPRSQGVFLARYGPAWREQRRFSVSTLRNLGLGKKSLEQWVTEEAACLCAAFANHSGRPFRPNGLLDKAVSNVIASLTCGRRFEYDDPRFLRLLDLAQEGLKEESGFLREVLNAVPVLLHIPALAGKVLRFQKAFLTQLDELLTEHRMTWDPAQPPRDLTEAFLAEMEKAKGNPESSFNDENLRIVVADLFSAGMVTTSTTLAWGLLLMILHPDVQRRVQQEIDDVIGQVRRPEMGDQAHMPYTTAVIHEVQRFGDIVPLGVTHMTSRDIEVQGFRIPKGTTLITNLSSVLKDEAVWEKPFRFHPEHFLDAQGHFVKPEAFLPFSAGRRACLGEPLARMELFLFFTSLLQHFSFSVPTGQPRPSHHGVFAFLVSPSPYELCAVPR
Glyceraldehyde-3-phosphate dehydrogenase, sequence (P04406 whole entry): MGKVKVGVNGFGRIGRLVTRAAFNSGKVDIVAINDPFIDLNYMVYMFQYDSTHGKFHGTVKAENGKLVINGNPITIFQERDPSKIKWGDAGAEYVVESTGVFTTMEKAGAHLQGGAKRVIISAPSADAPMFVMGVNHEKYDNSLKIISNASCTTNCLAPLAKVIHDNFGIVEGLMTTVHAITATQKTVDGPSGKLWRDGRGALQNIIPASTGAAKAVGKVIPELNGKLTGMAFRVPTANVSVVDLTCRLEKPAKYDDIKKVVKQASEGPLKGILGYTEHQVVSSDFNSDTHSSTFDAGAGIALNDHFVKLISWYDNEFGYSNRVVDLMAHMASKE
Ion channel NompC, sequence (Q7T1G6 whole entry): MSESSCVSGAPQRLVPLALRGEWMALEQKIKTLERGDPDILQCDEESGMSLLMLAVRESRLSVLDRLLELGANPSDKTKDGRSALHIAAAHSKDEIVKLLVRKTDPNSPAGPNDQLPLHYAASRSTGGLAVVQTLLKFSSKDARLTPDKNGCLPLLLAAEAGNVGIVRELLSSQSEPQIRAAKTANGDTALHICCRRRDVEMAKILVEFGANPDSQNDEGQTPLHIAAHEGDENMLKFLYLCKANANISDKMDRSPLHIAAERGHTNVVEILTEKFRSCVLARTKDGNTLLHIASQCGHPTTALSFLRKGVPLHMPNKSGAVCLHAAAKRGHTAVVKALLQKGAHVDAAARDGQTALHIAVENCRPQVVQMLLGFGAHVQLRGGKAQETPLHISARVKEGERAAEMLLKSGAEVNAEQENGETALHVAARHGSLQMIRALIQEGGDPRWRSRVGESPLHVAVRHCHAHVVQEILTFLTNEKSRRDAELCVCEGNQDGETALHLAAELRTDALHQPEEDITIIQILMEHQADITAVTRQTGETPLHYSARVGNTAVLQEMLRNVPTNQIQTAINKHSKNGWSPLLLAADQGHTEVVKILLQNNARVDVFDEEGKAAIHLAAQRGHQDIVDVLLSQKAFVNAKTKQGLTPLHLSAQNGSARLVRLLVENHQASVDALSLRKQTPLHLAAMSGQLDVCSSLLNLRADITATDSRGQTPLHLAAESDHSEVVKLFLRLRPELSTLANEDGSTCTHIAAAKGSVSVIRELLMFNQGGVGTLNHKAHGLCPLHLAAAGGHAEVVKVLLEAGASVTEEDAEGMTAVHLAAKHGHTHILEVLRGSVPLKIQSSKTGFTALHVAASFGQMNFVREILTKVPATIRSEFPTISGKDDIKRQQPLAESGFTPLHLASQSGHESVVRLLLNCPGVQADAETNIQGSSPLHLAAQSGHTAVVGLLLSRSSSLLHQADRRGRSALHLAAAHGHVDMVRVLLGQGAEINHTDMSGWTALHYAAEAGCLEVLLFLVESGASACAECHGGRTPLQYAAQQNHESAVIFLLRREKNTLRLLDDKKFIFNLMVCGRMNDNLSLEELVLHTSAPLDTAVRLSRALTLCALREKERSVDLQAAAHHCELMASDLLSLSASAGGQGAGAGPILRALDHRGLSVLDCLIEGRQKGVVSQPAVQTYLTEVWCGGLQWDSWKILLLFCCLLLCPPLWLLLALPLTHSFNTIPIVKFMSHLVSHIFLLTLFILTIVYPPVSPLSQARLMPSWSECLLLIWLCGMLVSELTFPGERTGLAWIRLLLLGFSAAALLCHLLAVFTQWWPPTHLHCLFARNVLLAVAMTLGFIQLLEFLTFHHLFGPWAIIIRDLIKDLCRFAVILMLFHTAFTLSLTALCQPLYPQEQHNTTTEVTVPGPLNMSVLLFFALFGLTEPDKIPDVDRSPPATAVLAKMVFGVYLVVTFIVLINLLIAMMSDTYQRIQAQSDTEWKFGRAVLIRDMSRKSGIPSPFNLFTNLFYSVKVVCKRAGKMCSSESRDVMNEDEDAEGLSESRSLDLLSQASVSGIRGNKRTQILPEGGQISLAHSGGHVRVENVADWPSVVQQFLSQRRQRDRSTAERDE

O=C(Nc1cccc(-c2nnc(-c3ccccc3)o2)c1)C1CCCCC1
IC50 [1]: > 111 µM (not active)
IC50 [2]: 6.03 µM (active)

Cc1cc(C)cc(N(CC(=O)N2CCOCC2)S(=O)(=O)c2ccccc2)c1
EC50 (Mucolipin-3): 3.71 µM (active)
EC50 (Ion channel NompC): > 29.9 µM (not active)

Cc1ccccc1N1CCN(C2=C(Cl)C(=O)N(c3ccc(Cl)c(Cl)c3)C2=O)CC1
IC50 [3]: > 100 µM (not active)
IC50 (Bcl-2-related protein A1 [4]): > 100 µM (not active)
IC50 (Bcl-2-related protein A1 [5]): > 100 µM (not active)

O=C(Cc1cccs1)Nc1ccc(S(=O)(=O)N2CCCCC2)cc1
IC50 (Estrogen receptor beta [6]): < 77 µM (not active)
IC50 [7]: 4.95 µM (active)
IC50 (Estrogen receptor beta [8]): 2.71 µM (active)

COc1ccc(/C=C2/NC(=O)N(CC(=O)Nc3cccc(C)c3)C2=O)cc1O
IC50 [1]: > 111 µM (not active)
IC50 [2]: 9.14 µM (active)

O=C(COc1ccc(Cl)cc1Cl)NC(=S)N1CCCc2ccccc21
EC50 [9]: 4.06 µM (active)

C=C(C)C(O)/C=C/c1cccc(OC)c1 (stereo not drawn)
AC50 (Cytochrome P450 2D6): 7.94 µM (inconclusive)
AC50 (Cytochrome P450 2C9): 7.94 µM (inconclusive)

N#C/C(=N\Nc1c(Cl)cccc1Cl)C(=O)NN
IC50 [10]: 28.2 µM (not active)
AC50 [11]: 2.37 µM (active)

O=c1c(/C=N/O)c(Nc2ccccc2)nc2ccccn12
IC50 [10]: > 69.5 µM (not active)
